This passage reports MIC results from patent publication EP0207453B1 (priority 1985, dated 1987).

Structures are written as SMILES. In brackets after ≈: the same amount, converted by molar mass.

The assay deals with Polio 2. The experiment in a line: microbe, parasite or virus in culture. It counts as cell-based, polioviruses. As to conditions: HeLa, read-out: MIC (Polio 2).

With `Cc1cc(CCCCCOc2c(Cl)cc(-c3ccc(C)s3)cc2Cl)on1` [10(b), 5-{5-[2,6-Dichloro-4-(5-methyl-2-thienyl)phenoxy]pentyl}-3-methylisoxazole], the MIC was 4.4 µg/mL (≈ 10.7 µM).
As for `Cc1cc(CCCCCOc2c(Cl)cc(-c3nnn(C)n3)cc2Cl)on1` [23 (1st compd.), 5-{5-[2,6-dichloro-4-(2-methyl-2H-tetrazol-5-yl)phenoxy]pentyl}-3-methylisoxazole], the MIC is 2.9 µg/mL (≈ 7.32 µM).
With `Cc1cc(CCCCCOc2c(Cl)cc(-c3cccs3)cc2Cl)on1` [Example 1(c), 5-{5-[2,6-Dichloro-4-(2-thienyl)phenoxy]pentyl}-3-methylisoxazole] the figure was 2.5 µg/mL (≈ 6.31 µM); with `Cc1cc(CCCCCOc2ccc(-c3cccs3)cc2)on1` [Example 2, 3-Methyl-5-{5-(4-(2-thienyl)phenoxy]pentyl}-isoxazole], 0.02 µg/mL (≈ 0.0611 µM); with `Cc1cc(CCCCCOc2ccc(-c3nc(C)c(C)s3)cc2)on1` [Example 3, 3-Methyl-5-{5-[4-(4,5-dimethyl-2-thiazolyl)phenoxy]-pentyl}isoxazole], 1 µg/mL (≈ 2.81 µM).
With `Cc1cc(CCCCCOc2ccc(-c3nc4ccccc4o3)cc2)on1` [Example 6, 5-{5-[4-(2-Benzoxazolyl)phenoxy]pentyl}-3-methylisoxazole] the figure was 0.9 µg/mL (≈ 2.48 µM); with `Cc1cc(CCCCCOc2ccc(-c3nccs3)cc2)on1` [Example 20, 3-Methyl-5-{5-[4-(2-thiazolyl)phenoxy]pentyl}-isoxazole], 0.06 µg/mL (≈ 0.183 µM).
